Reference: patent US12673052B2, “Combinations for the treatment of cancer” (Exelixis, Inc., priority 2020, dated 2026)
Where “and” joins values, the source holds several entries; their conditions need not be identical. Equal entries are not always repeated.

Key:
[1] = Liver microsomal stability assay; format: in vitro ADME, human; conditions: liver microsomes
Method: In the liver microsomal stability assay, CLint was 0.601 mL/min/g liver in mouse, 0.563 mL/min/g liver in rat, 0.315 mL/min/g liver in dog, 0.734 mL/min/g liver in monkey, and 0.639 mL/min/g liver in human. In the hepatocyte stability assay, Compound 1 CLint was 0.373 mL/min/g liver in mouse, 0.285 mL/min/g liver in rat, 1.08 mL/min/g liver in dog, 0.533 mL/min/g liver in monkey, and 0.317 mL/min/g liver in human.

[2] = GLP safety pharmacology: neurobehavioral and respiratory; format: in vivo, rats; conditions: single oral doses as high as 60 mg/kg; within 24 hours postdose
Method: The nonclinical toxicity of Compound 1 was characterized in dose range-finding 7-day and definitive 28-day repeat-dose studies in rats and dogs, and in in vitro bacterial and mammalian genotoxicity bioassays. Compound 1 was also evaluated in definitive neurobehavioral, respiratory and cardiovascular safety pharmacology studies.

[3] = system: CYP2C8; assay: CYP/UGT substrate specificity (recombinant Supersomes, chemical inhibitors in human liver microsomes); format: in vitro ADME
Method: (§1) Plasma PK of Compound 1 was characterized in rats and beagle dogs. Toxicokinetic (TK) evaluations of oral Compound 1 were evaluated in repeat-dose studies in rats and dogs. Plasma protein binding was determined in mouse, rat, dog, monkey, and human plasma in vitro. Biotransformation and metabolite profiling of Compound 1 were investigated in vitro using mouse, rat, dog, monkey, and human liver microsomal fractions and hepatocytes and in vivo in rats and dogs. P-glycoprotein (P-gp) and breast cancer resistance protein (BCRP) transporter interaction studies, in vitro experiments evaluating cytochrome P450 (CYP) induction and inhibition by Compound 1, and CYP and glucuronosyltransferase (UGT) substrate specificity studies of Compound 1 were also performed.

[4] = system: CYP2C9; assay: as above; format: in vitro ADME
Method: as §1

[5] = system: CYP1A2; assay: as above; format: in vitro ADME
Method: as §1

[6] = system: CYP3A4; assay: as above; format: in vitro ADME
Method: as §1

[7] = molecular target: T1, UGT1A1 (Homo sapiens, UniProt P22309); assay: as above; format: in vitro ADME
T1 construct: purchased; host or cells: recombinant Supersomes; human liver microsomes
Method: as §1

[8] = system: CYP2B6; assay: as above; format: in vitro ADME
Method: as §1

[9] = molecular target: T2, UGT1A4 (Homo sapiens, UniProt P22310); assay: as above; format: in vitro ADME
T2 construct: purchased; host or cells: recombinant Supersomes; human liver microsomes
Method: as §1

[10] = system: CYP2C19; assay: as above; format: in vitro ADME
Method: as §1

[11] = molecular target: T3, UGT2B7 (Homo sapiens, UniProt P16662); assay: as above; format: in vitro ADME
T3 construct: purchased; host or cells: recombinant Supersomes; human liver microsomes
Method: as §1

[12] = molecular target: T4, UGT1A9 (Homo sapiens, UniProt O60656); assay: as above; format: in vitro ADME
T4 construct: purchased; host or cells: recombinant Supersomes; human liver microsomes
Method: as §1

[13] = system: MDA-MB-231; assay: Tumor growth inhibition in xenograft model; format: in vivo, NSG mice
Method: (§2) Three human tumor cell lines, NCI-H441, MDA-MB-231, and SNU-5, were selected for use in tumor xenograft studies using athymic nude, NSG and CB.17 SCID mice, respectively. Pharmacodynamic modulation of MET phosphorylation was also measured in the NCI-H441 and SNU-5 xenografts. Tumor-bearing mice were orally dosed once-daily for 14 days (qd×14), and the tumors were resected and processed for MET phosphorylation analysis by Western blot. […]

[14] = system: primary human macrophages; assay: Efferocytosis: primary human macrophages cultured with apoptotic Jurkat cells; format: cell-based; conditions: read-out: Cellular IC50 (nM) (n = 2); one row per donor (#1-#5); geometric mean +/− geometric standard deviation
Method: In addition, the TAM RTKs are critical in the process of efferocytosis, or the recognition and phagocytosis of apoptotic cells that maintains normal tissue homeostasis. When efferocytosis is inhibited, macrophages engage a proinflammatory activation response. When primary human macrophages are cultured with apoptotic Jurkat cells in the presence of Compound 1, their phagocytic ability was inhibited in a dose dependent manner. In Table 5, the IC50 from 5 independent donors are listed.

[15] = molecular target: MET (Homo sapiens, UniProt P08581); assay: In vivo target modulation: MET phosphorylation by Western blot in NCI-H441 xenografts; set-up: endogenous in cells; host or cells: NCI-H441 human tumour xenografts in athymic nude mice; species or system athymic nude mice; conditions: for Compound 1 Plasma Exposure: qd × 14, 4 hours after last dose on Day 14
Method: as §2

[16] = NCI-H441, mouse, po, read-out: p-MET Inhibition %

MET, sequence (P08581 25-1390): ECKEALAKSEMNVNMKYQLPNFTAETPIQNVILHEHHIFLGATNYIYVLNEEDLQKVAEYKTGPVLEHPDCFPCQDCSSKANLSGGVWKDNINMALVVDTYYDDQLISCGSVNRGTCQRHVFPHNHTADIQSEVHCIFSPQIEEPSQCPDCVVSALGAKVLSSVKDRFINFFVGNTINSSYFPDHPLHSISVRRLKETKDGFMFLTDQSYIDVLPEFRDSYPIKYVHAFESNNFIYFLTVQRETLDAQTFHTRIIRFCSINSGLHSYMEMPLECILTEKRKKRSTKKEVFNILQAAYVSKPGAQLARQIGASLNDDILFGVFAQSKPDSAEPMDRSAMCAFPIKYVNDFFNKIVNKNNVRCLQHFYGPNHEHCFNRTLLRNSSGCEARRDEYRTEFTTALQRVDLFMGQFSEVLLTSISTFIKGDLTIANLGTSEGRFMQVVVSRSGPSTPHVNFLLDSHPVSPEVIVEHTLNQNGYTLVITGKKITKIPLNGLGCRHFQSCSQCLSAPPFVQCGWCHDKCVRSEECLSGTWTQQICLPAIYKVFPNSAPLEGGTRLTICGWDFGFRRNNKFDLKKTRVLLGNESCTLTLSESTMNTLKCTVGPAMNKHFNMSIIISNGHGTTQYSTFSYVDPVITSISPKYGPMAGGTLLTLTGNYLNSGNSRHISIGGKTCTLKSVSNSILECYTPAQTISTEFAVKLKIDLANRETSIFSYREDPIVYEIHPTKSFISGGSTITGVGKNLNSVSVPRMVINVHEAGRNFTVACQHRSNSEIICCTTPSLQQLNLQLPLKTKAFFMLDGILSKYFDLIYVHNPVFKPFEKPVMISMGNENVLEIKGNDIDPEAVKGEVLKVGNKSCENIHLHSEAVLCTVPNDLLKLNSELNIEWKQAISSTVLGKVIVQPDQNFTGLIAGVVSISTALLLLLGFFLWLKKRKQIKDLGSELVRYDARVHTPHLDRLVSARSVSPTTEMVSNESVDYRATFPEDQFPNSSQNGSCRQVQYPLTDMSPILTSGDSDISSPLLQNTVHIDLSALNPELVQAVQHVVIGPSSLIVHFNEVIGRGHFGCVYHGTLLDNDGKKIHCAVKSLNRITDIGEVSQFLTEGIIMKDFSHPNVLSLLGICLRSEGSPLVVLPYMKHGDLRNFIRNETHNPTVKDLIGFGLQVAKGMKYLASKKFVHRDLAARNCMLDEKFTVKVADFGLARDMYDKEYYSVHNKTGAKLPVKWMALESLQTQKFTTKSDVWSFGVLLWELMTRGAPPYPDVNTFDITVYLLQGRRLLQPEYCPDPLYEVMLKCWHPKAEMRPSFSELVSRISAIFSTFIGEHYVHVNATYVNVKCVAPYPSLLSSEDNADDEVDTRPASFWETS
T3 sequence (P16662 24-529): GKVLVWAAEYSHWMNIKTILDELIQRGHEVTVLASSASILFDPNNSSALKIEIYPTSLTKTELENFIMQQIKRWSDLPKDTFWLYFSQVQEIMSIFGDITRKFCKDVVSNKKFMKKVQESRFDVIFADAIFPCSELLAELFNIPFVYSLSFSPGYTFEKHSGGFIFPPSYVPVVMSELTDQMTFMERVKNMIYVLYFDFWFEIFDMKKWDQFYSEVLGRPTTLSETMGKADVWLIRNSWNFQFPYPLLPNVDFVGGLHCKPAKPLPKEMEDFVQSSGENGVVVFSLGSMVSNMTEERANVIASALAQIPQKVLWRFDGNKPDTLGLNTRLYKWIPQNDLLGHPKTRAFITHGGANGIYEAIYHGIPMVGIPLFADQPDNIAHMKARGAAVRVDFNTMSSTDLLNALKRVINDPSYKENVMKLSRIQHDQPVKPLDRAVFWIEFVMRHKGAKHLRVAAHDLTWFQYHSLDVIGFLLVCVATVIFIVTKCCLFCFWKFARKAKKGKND
T2 sequence (P22310 29-534): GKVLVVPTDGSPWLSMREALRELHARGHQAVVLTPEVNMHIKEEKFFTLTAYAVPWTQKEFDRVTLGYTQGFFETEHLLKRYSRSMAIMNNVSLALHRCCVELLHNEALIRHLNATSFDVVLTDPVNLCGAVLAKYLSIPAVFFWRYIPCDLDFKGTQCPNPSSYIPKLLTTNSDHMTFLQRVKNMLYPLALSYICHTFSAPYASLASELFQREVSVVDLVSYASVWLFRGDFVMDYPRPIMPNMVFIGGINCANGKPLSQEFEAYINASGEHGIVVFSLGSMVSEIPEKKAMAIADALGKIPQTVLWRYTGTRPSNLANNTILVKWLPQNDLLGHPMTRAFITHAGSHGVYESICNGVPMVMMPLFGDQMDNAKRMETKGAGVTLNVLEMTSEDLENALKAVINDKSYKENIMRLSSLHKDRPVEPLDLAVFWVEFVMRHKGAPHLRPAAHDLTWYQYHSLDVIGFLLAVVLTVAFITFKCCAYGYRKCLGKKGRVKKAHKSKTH
T4 sequence (O60656 26-530): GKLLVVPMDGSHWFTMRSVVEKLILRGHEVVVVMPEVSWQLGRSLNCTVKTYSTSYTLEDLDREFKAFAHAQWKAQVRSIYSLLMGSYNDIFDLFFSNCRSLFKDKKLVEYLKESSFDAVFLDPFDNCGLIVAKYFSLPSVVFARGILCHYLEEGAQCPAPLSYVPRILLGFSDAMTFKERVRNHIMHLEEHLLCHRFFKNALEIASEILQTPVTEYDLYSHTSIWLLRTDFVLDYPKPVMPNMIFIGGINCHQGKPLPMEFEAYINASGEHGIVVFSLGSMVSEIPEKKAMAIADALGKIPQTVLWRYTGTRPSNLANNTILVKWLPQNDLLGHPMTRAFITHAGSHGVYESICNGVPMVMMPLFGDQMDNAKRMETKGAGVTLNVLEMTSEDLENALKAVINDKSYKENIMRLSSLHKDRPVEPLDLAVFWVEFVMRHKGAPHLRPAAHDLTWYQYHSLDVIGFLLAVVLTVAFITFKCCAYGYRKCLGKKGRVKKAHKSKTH
T1 sequence (P22309 26-533): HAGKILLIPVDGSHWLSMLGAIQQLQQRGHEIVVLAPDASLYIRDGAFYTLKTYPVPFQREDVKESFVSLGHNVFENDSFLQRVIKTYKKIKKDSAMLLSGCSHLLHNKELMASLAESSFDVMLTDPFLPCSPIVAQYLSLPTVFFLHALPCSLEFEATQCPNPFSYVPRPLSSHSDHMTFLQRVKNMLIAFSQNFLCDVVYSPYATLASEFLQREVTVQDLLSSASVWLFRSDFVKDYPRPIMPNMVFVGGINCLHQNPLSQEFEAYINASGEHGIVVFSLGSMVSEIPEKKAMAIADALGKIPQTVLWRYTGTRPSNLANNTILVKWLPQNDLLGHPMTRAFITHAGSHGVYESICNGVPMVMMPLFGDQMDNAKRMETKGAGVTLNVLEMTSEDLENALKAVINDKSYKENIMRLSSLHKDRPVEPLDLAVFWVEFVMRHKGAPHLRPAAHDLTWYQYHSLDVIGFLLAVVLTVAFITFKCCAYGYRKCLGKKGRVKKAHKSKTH

CNC(=O)c1cc2c(Oc3ccc(NC(=O)C4(C(=O)Nc5ccc(F)cc5)CC4)cc3)ccnc2cc1OC [Compound 1, 1-N′-(4-Fluorophenvl)-1-N-[4-[7-methoxy-6-(methylcarbamovl)quinolin-4-yl]oxyphenyl]cyclopropane-1,1-dicarboxamide]
CLint [1]: 0.639 mL/min/g liver
neurobehavioral and respiratory system effects [2]: no adverse neurobehavioral effects or toxicologically significant respiratory system effects
role in the metabolism of Compound 1 [3]: only a minor role
substrate of enzyme [4]: weaker substrate
substrate of enzyme [5]: not to be a substrate
substrate of enzyme [6]: sensitive substrate
substrate of enzyme [7]: not to be a substrate
substrate of enzyme [8]: not to be a substrate
role in Compound 1 metabolism [9]: may play a minor role
substrate of enzyme [10]: not to be a substrate
substrate of enzyme [11]: not to be a substrate
substrate of enzyme [12]: not to be a substrate
TGI (%) ([13]; 3 mg/kg qd × 14 oral, p-value 0.0001): 73.6%
TGI (%) ([13]; 10 mg/kg qd × 14 oral, p-value <0.0001): 78.6%
IC50 [14]: 42.7 nM and 45.1 nM and 44 nM and 96.5 nM and 181 nM
Compound 1 Plasma Exposure ([15]; 3 mg/kg): 2.44 µM
Compound 1 Plasma Exposure ([15]; 10 mg/kg): 9.71 µM
inhibition at 3 mg/kg [15, 16]: 60%
inhibition at 10 mg/kg [15, 16]: 82%
